Earlier results, collected in patent publication US20020010148A1, “Oral combinations of hydroxocobalamin and folic acid” (priority 1999, published 2002).

Tests used:
homocysteine levels = details: 0.4 mg hydroxocobalamin alone or with 0.5 mg/day or 5 mg/day folic acid, oral
[1] = oral doses of 1 mg or more; without intrinsic factor; dose-dependent
vitamin B12 deficiency = details: oral 1-2 mg/day; patients with pernicious anaemia

Compound	contribution to lowering of homocysteine levels (homocysteine levels)	further results
Nc1nc2ncc(CNc3ccc(C(=O)N[C@@H](CCC(=O)O)C(=O)O)cc3)nc2c(=O)[nH]1 [folic acid]	main effect	–
C/C1=C2/[N-][C@H]([C@H](CC(N)=O)[C@@]2(C)CCC(=O)NC[C@@H](C)OP(=O)([O-])O[C@H]2[C@@H](O)[C@@H](n3cnc4cc(C)c(C)cc43)O[C@@H]2CO)[C@]2(C)N=C(/C(C)=C3N=C(/C=C4N=C1[C@@H](CCC(N)=O)C\4(C)C)[C@@H](CCC(N)=O)[C@]\3(C)CC(N)=O)[C@@H](CCC(N)=O)[C@]2(C)CC(N)=O.[Co+3].[OH-] [hydroxocobalamin]	contributed little	–
Vitamin B12	–	passive absorption, share of the oral dose [1]: 1-2%
cyanocobalamin	–	adequacy of oral dosing to provide vitamin B12 (vitamin B12 deficiency): fully adequate
